Earlier results as cited in publication PMC9091901 (Journal of Pharmaceutical Analysis, 2021).

Settings: octanol-water partition coefficient; ref DrugBank database

| Compound | log P |
| --- | --- |
| O=C(O)c1cccc(C(=O)O)n1 [2,6-pyridinedicarboxylic acid] | −0.44 |
| O=c1cc(O)c2ccccc2o1 [4-hydroxycoumarin] | 1.01 |
| NCC[C@H](O)C(=O)N[C@@H]1C[C@H](N)[C@@H](O[C@H]2O[C@H](CN)[C@@H](O)[C@H](O)[C@H]2O)[C@H](O)[C@H]1O[C@H]1O[C@H](CO)[C@@H](O)[C@H](N)[C@H]1O [Amikacin] | −3.20 |
| CCN(CC)Cc1cc(Nc2ccnc3cc(Cl)ccc23)ccc1O [Amodiaquine] | 3.70 |
| CC(C)(N)Cc1ccc(Cl)cc1 [Chlorphentermine] | 2.60 |
| CCOC(=O)C(C)(C)Oc1ccc(Cl)cc1 [Clofibrate] | 3.30 |
| O=c1[nH]c2ccccc2n1CCCN1CCC(n2c(=O)[nH]c3cc(Cl)ccc32)CC1 [Domperidone] | 3.90 |
| CN1C(=O)NC(=O)C(C)(C2=CCCCC2)C1=O (centres unmarked) [Hexobarbital] | 1.98 |
| CC1Cc2ccccc2N1NC(=O)c1ccc(Cl)c(S(N)(=O)=O)c1 (centres unmarked) [Indapamide] | 2.52 |
| CCOC(=O)C1=C(C)NC(C)=C(C(=O)OC)C1c1cccc([N+](=O)[O-])c1 (centres unmarked) [Nitrendipine] | 2.88 |
| CC(COc1ccccc1)N(CCCl)Cc1ccccc1 (centres unmarked) [Phenoxybenzamine] | 4.70 |
| CCN(CC)CCOC(=O)c1ccc(N)cc1 [Procaine] | 2.14 |
| CC(C)NCC(O)c1ccc(NS(C)(=O)=O)cc1 (centres unmarked) [Sotalol] | −0.40 |
| CC(C)(C)c1cc(O)ccc1O [Tert-butylhydroquinone] | 2.91 |
